Reference: patent publication US20030190365A1, “Methods for wet granulating azithromycin” (Pfizer Inc., priority 2001, published 2003)

Experiments:
[1] = Equilibrium solubility of azithromycin forms in granulating liquids (HPLC-UV)
Experimental: Equilibrium solubility of several different forms of azithromycin, in typical liquids used in the wet granulation process, were evaluated as follows.
Excess azithromycin was added as a solid into each respective test liquid and mixed by rotation using a Labquake Rotating Mixer® at 7 revolutions per minute (RPM). Duplicate samples were run for each condition. Excess drug material was added to achieve saturation. Once saturation was achieved, the samples were rotated for 48 hours with sampling intervals at 24 and 48 hours. Azithromycin form A was also set up for a 7-day equilibrium solubility analysis to assure equilibrium beyond 48 hours. At each sampling interval, approximately half (1 mL) the sample was transferred into a polyethylene microcentrifuge tube and centrifuged at 15,000 RPM for 20 minutes using the Eppendorf Centrifuge Model # 5403. Following centrifugation, the liquid layer was pipetted and diluted with 0.04 M potassium phosphate dibasic (pH=8): acetonitrile (4:6). Dilutions were made accordingly until the peak area fell into the linear curve range of the standards (0.15 to 1.5 mgA/mL). Samples were run by HPLC (HP-1100 system, Agilent Technologies, Wilmington, Del.) with UV detection at 210 nm. The sample data was calculated by linear regression against the standard curve based on azithromycin form A.

[2] = As-is and tapped density of bulk drug and dried granulations (Van Kel tap density tester); format: physicochemical
Experimental: Form F bulk drug contained soft lumps and was sieved through an 18 mesh (1.0 mm) screen before use. A small-scale granulation process, as described in Example 1, was used for samples of 5 g of bulk drug. The liquid was pipetted in 0.1 to 1.0 mL increments until a granulation was formed, based on visual observations, followed by wet mixing for 3-5 minutes. All three runs formed wet granulations, but the run with water was much less granular than the non-aqueous runs. All of the samples were dried overnight at 40° C. for 16 hours. […] The two nonaqueous liquid runs appeared to be only ˜50% granules, and the water run was only slightly granular.
Samples of the dried granules were then hand sieved through an 18 mesh screen and the density was determined, as shown above in Table 2C. SEM's were taken of dried samples both before and after sieving was done to aid in the evaluation.
A small-scale process, as described in Example 1, was used to granulate the formulations. The ingredients (except for the lubricant), to make a 10 g lot for each run, were pre-blended for 5 minutes on a Turbula Shaker-Mixer (Willy A. Bachofen AG Maschinenfabrik, Basel, Switzerland). The blend was granulated per Example 1. The liquid was pipetted in 0.1 to 1.0 mL increments and mixed for 2.5-6 minutes until a granulation was formed. All of the samples were dried overnight at 40° C. for 16 hours. The amount of densification varied depending on the excipients used in the formulation. […] Tablets were not made from these four granulation runs because of the poor quality.
A small-scale process, as described in Example 1, was used to granulate the formulations into 10 g lots. The liquid was pipetted in 0.1 to 1.0 mL increments and mixed for 2-5 minutes until a granulation was formed. All of the samples were dried overnight at 40° C. for 16 hours in a forced hot air oven and then hand sieved through a 18 mesh (1.0 mm) screen.
A small-scale process, as described in Example 1, was used to granulate the formulations. The granulating liquid was pipetted in 0.1 to 1.0 mL increments and mixed with the 9.3 g of the dry blend for 3-6 minutes until a granulation was formed. The granulating amount, of 30, 27 and 29%, was used for the PVP granulating liquid in ethanol, water and 50:50 ethanol:water, respectively. The amount of liquid used was 2.5-3 mL, therefore the amount of solid (PVP) added in solution based on the 10 g final batch size was from about 0.25 to 0.3%. All of the samples were dried overnight at 40° C. for 16 hours and then hand sieved through a 16 mesh (1.2 mm) screen.
A small-scale process, as described in Example 1, was used to granulate the formulations to make 10 g lots. Each formulation was pre-blended for 5 minutes on a Turbula Shaker-Mixer (Willy A. Bachofen AG Maschinenfabrik, Basel, Switzerland) for 5 minutes. The blend was then granulated as described in Example 1. The liquid was pipetted in 0.1 to 1.0 mL increments and mixed for 4-8 minutes until a granulation was formed. All of the samples were dried overnight at 40° C. for 16 hours and then hand sieved through a 16 mesh (1.2mm) screen. The densities of the granulations were then compared to the bulk drug and to each other. The amount of densification varied depending on the components used in the formulation.

[3] = 24 hours, EtOH 33% in water v/v
[4] = 24 hours, EtOH 67% in water v/v
[5] = 48 hours, EtOH 33% in water v/v
[6] = 48 hours, EtOH 67% in water v/v

| SMILES | solubility [1, 3] [mgA/mL] | solubility [1, 4] [mgA/mL] | solubility ([1]; 24 hours, EtOH 100% neat) [mgA/mL] | solubility ([1]; 24 hours, IPA 33% in water v/v) [mgA/mL] | solubility ([1]; 24 hours, IPA 67% in water v/v) [mgA/mL] | solubility ([1]; 24 hours, IPA 100% neat) [mgA/mL] | solubility ([1]; 24 hours, water) [mgA/mL] | solubility [1, 5] [mgA/mL] | solubility [1, 6] [mgA/mL] | solubility ([1]; 48 hours, EtOH 100% neat) [mgA/mL] | solubility ([1]; 48 hours, IPA 33% in water v/v) [mgA/mL] | solubility ([1]; 48 hours, IPA 67% in water v/v) [mgA/mL] | solubility ([1]; 48 hours, IPA 100% neat) [mgA/mL] | solubility ([1]; 48 hours, water) [mgA/mL] | As Is Density ([2]; Example 3) [g/cc] | Tapped Density ([2]; Example 3) [g/cc] | further results |
| --- | --- | --- | --- | --- | --- | --- | --- | --- | --- | --- | --- | --- | --- | --- | --- | --- | --- |
| CC[C@H]1OC(=O)[C@H](C)[C@@H](O[C@H]2C[C@@](C)(OC)[C@@H](O)[C@H](C)O2)[C@H](C)[C@@H](O[C@@H]2O[C@H](C)C[C@H](N(C)C)[C@H]2O)[C@](C)(O)C[C@@H](C)CN(C)[C@H](C)[C@@H](O)[C@]1(C)O [form A, 9-deoxo-9a-aza-9a-methyl-9a-homoerythromycin A, reference compound] | 1.30 | 27.48 | 219.74 | 5.50 | 68.71 | 291.91 | 0.10 | 1.23 | 27.25 | 211.59 | 5.25 | 67.70 | 280.91 | 0.14 |  |  | solubility ([1]; 7 days, EtOH 33% in water v/v): 1.27 mgA/mL; solubility ([1]; 7 days, EtOH 67% in water v/v): 27.02 mgA/mL; solubility ([1]; 7 days, EtOH 100% neat): 214.76 mgA/mL; solubility ([1]; 7 days, IPA 33% in water v/v): 5.28 mgA/mL; solubility ([1]; 7 days, IPA 67% in water v/v): 66.63 mgA/mL; solubility ([1]; 7 days, IPA 100% neat): 286.45 mgA/mL; solubility ([1]; 7 days, water): 0.11 mgA/mL; solubility in pure water compared to all other forms ([1]; relative to the other forms): approximately one-half; solubility in the isopropanol solutions compared to all other forms ([1]; relative to the other forms): lower solubility |
| CCC1OC(=O)C(C)C(O[C@H]2C[C@@](C)(OC)[C@@H](O)C(C)O2)C(C)[C@@H](OC2OC(C)CC(N(C)C)[C@H]2O)[C@@](C)(O)C[C@@H](C)CN(C)[C@H](C)[C@@H](O)[C@]1(C)O (stereo partly drawn) [form F, azithromycin monohydrate hemi-ethanol solvate] | 0.98 | 27.86 | 228.34 | 10.04 | 94.09 | 367.02 | 0.19 | 1.06 | 27.56 | 229.87 | 9.41 | 79.90 | 362.64 | 0.21 | 0.290 | 0.439 | As is Density ([2]; Example 2, form F, Table 2A): 0.290 g/cc; Tapped Density ([2]; Example 2, form F, Table 2A, 2000 taps): 0.439 g/cc; As is Density ([2]; Example 2, form F, Table 2C): 0.290 g/cc; Tapped Density ([2]; Example 2, form F, Table 2C): 0.439 g/cc; As Is Density ([2]; Example 6, form F): 0.290 g/cc; Tapped Density ([2]; Example 6, form F): 0.439 g/cc; As Is Density ([2]; Example 7, form F): 0.290 g/cc; Tapped Density ([2]; Example 7, form F): 0.439 g/cc |
| CC[C@H]1OC(=O)[C@H](C)[C@@H](O[C@H]2C[C@@](C)(OC)[C@@H](O)[C@H](C)O2)[C@H](C)[C@@H](O[C@@H]2O[C@H](C)C[C@H](N(C)C)[C@H]2O)[C@](C)(O)C[C@@H](C)CN(C)[C@H](C)[C@@H](O)[C@]1(C)O [form G, azithromycin sesquihydrate] |  |  |  |  |  |  |  |  |  |  |  |  |  |  |  |  | As Is Density ([2]; Example 3, sesquihydrate): 0.290 g/cc; Tapped Density ([2]; Example 3, sesquihydrate): 0.450 g/cc |
| CCC1OC(=O)C(C)C(O[C@H]2C[C@@](C)(OC)[C@@H](O)C(C)O2)C(C)[C@@H](OC2OC(C)CC(N(C)C)[C@H]2O)[C@@](C)(O)C[C@@H](C)CN(C)[C@H](C)[C@@H](O)[C@]1(C)O (stereo partly drawn) [form J, azithromycin monohydrate hemi-n-propanol solvate] | 0.95 | 27.15 | 224.77 | 9.81 | 113.05 | 315.94 | 0.18 | 0.99 | 26.30 | 208.99 | 9.40 | 106.51 | 295.88 | 0.22 | 0.377 | 0.649 |  |
| CCC1OC(=O)C(C)C(O[C@H]2C[C@@](C)(OC)[C@@H](O)C(C)O2)C(C)[C@@H](OC2OC(C)CC(N(C)C)[C@H]2O)[C@@](C)(O)C[C@@H](C)CN(C)[C@H](C)[C@@H](O)[C@]1(C)O (stereo partly drawn) [form M, azithromycin monohydrate hemi-isopropanol solvate] | 0.97 | 25.86 | 211.38 | 8.56 | 110.67 | 333.39 | 0.22 | 1.10 | 27.00 | 222.38 | 8.92 | 82.95 | 353.19 | 0.21 | 0.391 | 0.514 | solubility ([1]; 72 hours, IPA 67% in water v/v): 71.35 mgA/mL; solubility ([1]; 72 hours, IPA 100% neat): 322.55 mgA/mL |
| CC[C@H]1OC(=O)[C@H](C)[C@@H](O[C@H]2C[C@@](C)(OC)[C@@H](O)[C@H](C)O2)[C@H](C)[C@@H](O[C@@H]2O[C@H](C)C[C@H](N(C)C)[C@H]2O)[C@](C)(O)C[C@@H](C)CN(C)[C@H](C)[C@@H](O)[C@]1(C)O [form N, azithromycin] | 1.06 | 27.33 | 228.14 | 9.23 | 113.08 | 334.22 | 0.20 | 1.11 | 27.20 | 225.78 | 7.36 | 106.48 | 322.91 | 0.24 | 0.450 | 0.600 |  |
